Assay results taken from patent US10004701B2, “Methods and compositions for treating infection” (UNIVERSITY OF ROCHESTER, priority 2012, dated 2018).
Where a name gives a salt, the structure may show the parent alone. Read-outs that look alike come from different tables or passages of the source.

Assays:
Assay in all cases: AK assay 384-well format, Prestwick library screening
[1] = system: K. pneumoniae; assay type: cell-based, Klebsiella pneumoniae; settings: 50 μM final drug concentration; for fold induction at 50 µM: Klebsiella pneumoniae, 3 h
[2] = system: S. aureus strain USA300-0114; assay type: cell-based, Staphylococcus aureus; settings: 50 μM final drug concentration; for fold induction at 50 µM: Staphylococcus aureus, USA300, 3 h
[3] = system: E. faecium; assay type: cell-based, Enterococcus faecium; settings: 50 μM final drug concentration; for fold induction at 50 µM: Enterococcus faecium, 3 h
[4] = system: E. coli; assay type: cell-based, Escherichia coli; settings: 50 μM final drug concentration; for fold induction at 50 µM: Escherichia coli, 3 h
[5] = system: A. baumannii strain 98-37-09; assay type: cell-based, Acinetobacter baumannii; settings: 50 μM final drug concentration; for fold induction at 50 µM: Acinetobacter baumannii, 983709, 3 h
[6] = system: E. cloacae; assay type: cell-based, Enterobacter cloacae; settings: 50 μM final drug concentration; for fold induction at 50 µM: Enterobacter cloacae, 3 h
[7] = system: P. aeruginosa; assay type: cell-based, Pseudomonas aeruginosa; settings: 50 μM final drug concentration; for fold induction at 50 µM: Pseudomonas aeruginosa, 3 h
[8] = planktonic K. pneumoniae, 384-well, cutoff for positive-scoring molecules 3-fold increase, read-out: AK-based Prestwick Library Screening Results: K. pneumoniae (increase in extracellular AK activity)
[9] = planktonic S. aureus, 384-well, cutoff for positive-scoring molecules 3-fold increase, read-out: AK-based Prestwick Library Screening Results: S. aureus (increase in extracellular AK activity)
[10] = planktonic E. faecium, 384-well, cutoff for positive-scoring molecules 3-fold increase, read-out: AK-based Prestwick Library Screening Results: E. faecium (increase in extracellular AK activity)
[11] = planktonic E. coli, 384-well, cutoff for positive-scoring molecules 3-fold increase, read-out: AK-based Prestwick Library Screening Results: E. coli (increase in extracellular AK activity)
[12] = planktonic A. baumannii, 384-well, cutoff for positive-scoring molecules 3-fold increase, read-out: AK-based Prestwick Library Screening Results: A. baumannii (increase in extracellular AK activity)
[13] = planktonic E. cloacae, 384-well, cutoff for positive-scoring molecules 3-fold increase, read-out: AK-based Prestwick Library Screening Results: E. cloacae (increase in extracellular AK activity)
[14] = planktonic P. aeruginosa, 384-well, cutoff for positive-scoring molecules 3-fold increase, read-out: AK-based Prestwick Library Screening Results: P. aeruginosa (increase in extracellular AK activity)

Cc1ccc(C)c(OCCCC(C)(C)C(=O)O)c1 [Gemfibrozil]
fold induction at 50 µM [1, 8]: 0.9 | fold induction at 50 µM [2, 9]: 0.9 | fold induction at 50 µM [3, 10]: 1 | fold induction at 50 µM [4, 11]: 1.3 | fold induction at 50 µM [5, 12]: 1.3 | fold induction at 50 µM [6, 13]: 1.5 | fold induction at 50 µM [7, 14]: 1.2

C=C1C[C@]23C[C@@]1(O)CC[C@H]2[C@@]12C=C[C@H](O)[C@@](C)(C(=O)O1)[C@H]2[C@@H]3C(=O)O [Gibberellic acid]
fold induction at 50 µM ([1]; cutoff for positive-scoring molecules 3-fold increase, read-out: AK-based Prestwick Library Screening Results, K. pneumoniae (fold increase in extracellular AK activity)): 0.5 | fold induction at 50 µM ([2]; cutoff for positive-scoring molecules 3-fold increase, read-out: AK-based Prestwick Library Screening Results, S. aureus (fold increase in extracellular AK activity)): 0.4 | fold induction at 50 µM ([3]; cutoff for positive-scoring molecules 3-fold increase, read-out: AK-based Prestwick Library Screening Results, E. faecium (fold increase in extracellular AK activity)): 0.8 | fold induction at 50 µM ([4]; cutoff for positive-scoring molecules 3-fold increase, read-out: AK-based Prestwick Library Screening Results, E. coli (fold increase in extracellular AK activity)): 0.5 | fold induction at 50 µM ([5]; cutoff for positive-scoring molecules 3-fold increase, read-out: AK-based Prestwick Library Screening Results, A. baumannii (fold increase in extracellular AK activity)): 0.4 | fold induction at 50 µM ([6]; cutoff for positive-scoring molecules 3-fold increase, read-out: AK-based Prestwick Library Screening Results, E. cloacae (fold increase in extracellular AK activity)): 0.4 | fold induction at 50 µM ([7]; cutoff for positive-scoring molecules 3-fold increase, read-out: AK-based Prestwick Library Screening Results, P. aeruginosa (fold increase in extracellular AK activity)): 0.4

C[C@@H]1C(=O)O[C@H]2C[C@@]34[C@H]5C[C@@H](C(C)(C)C)[C@]36[C@@H](OC(=O)[C@@H]6O)O[C@@]4(C(=O)O5)[C@]21O [Ginkgolide A]
AK-based Prestwick Library Screening Results, K. pneumoniae (increase in extracellular AK activity) ([1]; planktonic K. pneumoniae, […]): 1.0 | AK-based Prestwick Library Screening Results, S. aureus (increase in extracellular AK activity) ([2]; planktonic S. aureus, […]): 1.1 | AK-based Prestwick Library Screening Results, E. faecium (increase in extracellular AK activity) ([3]; planktonic E. faecium, […]): 1.0 | AK-based Prestwick Library Screening Results, E. coli (increase in extracellular AK activity) ([4]; planktonic E. coli, […]): 1.3 | AK-based Prestwick Library Screening Results, A. baumannii (increase in extracellular AK activity) ([5]; planktonic A. baumannii, […]): 1.0 | AK-based Prestwick Library Screening Results, E. cloacae (increase in extracellular AK activity) ([6]; planktonic E. cloacae, […]): 1.2 | AK-based Prestwick Library Screening Results, P. aeruginosa (increase in extracellular AK activity) ([7]; planktonic P. aeruginosa, […]): 1.1

O=C(OCC(O)CO)c1ccccc1Nc1ccnc2cc(Cl)ccc12 (stereo not drawn) [Glafenine hydrochloride]
fold induction at 50 µM ([1]; planktonic K. pneumoniae, 384-well, […], read-out: AK-based Prestwick Library Screening Results: K. pneumoniae (increase in extracellular AK activity)): 1 | fold induction at 50 µM ([2]; planktonic S. aureus, 384-well, […], read-out: AK-based Prestwick Library Screening Results: S. aureus (increase in extracellular AK activity)): 1.1 | fold induction at 50 µM ([3]; planktonic E. faecium, 384-well, […], read-out: AK-based Prestwick Library Screening Results: E. faecium (increase in extracellular AK activity)): 1.1 | fold induction at 50 µM ([4]; planktonic E. coli, 384-well, […], read-out: AK-based Prestwick Library Screening Results: E. coli (increase in extracellular AK activity)): 1.2 | fold induction at 50 µM ([5]; planktonic A. baumannii, 384-well, […], read-out: AK-based Prestwick Library Screening Results: A. baumannii (increase in extracellular AK activity)): 1.1 | fold induction at 50 µM ([6]; planktonic E. cloacae, 384-well, […], read-out: AK-based Prestwick Library Screening Results: E. cloacae (increase in extracellular AK activity)): 1.5 | fold induction at 50 µM ([7]; planktonic P. aeruginosa, 384-well, […], read-out: AK-based Prestwick Library Screening Results: P. aeruginosa (increase in extracellular AK activity)): 1.2

COc1ccc(Cl)cc1C(=O)NCCc1ccc(S(=O)(=O)NC(=O)NC2CCCCC2)cc1 [Glibenclamide]
fold induction at 50 µM [1, 8]: 1.1 | fold induction at 50 µM [2, 9]: 0.9 | fold induction at 50 µM [3, 10]: 1 | fold induction at 50 µM [4, 11]: 1.2 | fold induction at 50 µM [5, 12]: 1.3 | fold induction at 50 µM [6, 13]: 1.4 | fold induction at 50 µM [7, 14]: 1.2

Cc1ccc(S(=O)(=O)NC(=O)NN2CC3CCCC3C2)cc1 (stereo not drawn) [Gliclazide]
fold induction at 50 µM ([1]; planktonic, cutoff for positive 3-fold increase, read-out: AK-based Prestwick Library Screening Results, K. pneumoniae (fold increase in extracellular AK activity)): 1.2 | fold induction at 50 µM ([2]; planktonic, cutoff for positive 3-fold increase, read-out: AK-based Prestwick Library Screening Results, S. aureus (fold increase in extracellular AK activity)): 1 | fold induction at 50 µM ([3]; planktonic, cutoff for positive 3-fold increase, read-out: AK-based Prestwick Library Screening Results, E. faecium (fold increase in extracellular AK activity)): 1 | fold induction at 50 µM ([4]; planktonic, cutoff for positive 3-fold increase, read-out: AK-based Prestwick Library Screening Results, E. coli (fold increase in extracellular AK activity)): 1.2 | fold induction at 50 µM ([5]; planktonic, cutoff for positive 3-fold increase, read-out: AK-based Prestwick Library Screening Results, A. baumannii (fold increase in extracellular AK activity)): 1.3 | fold induction at 50 µM ([6]; planktonic, cutoff for positive 3-fold increase, read-out: AK-based Prestwick Library Screening Results, E. cloacae (fold increase in extracellular AK activity)): 1.8 | fold induction at 50 µM ([7]; planktonic, cutoff for positive 3-fold increase, read-out: AK-based Prestwick Library Screening Results, P. aeruginosa (fold increase in extracellular AK activity)): 1.2

CCC1=C(C)CN(C(=O)NCCc2ccc(S(=O)(=O)NC(=O)N[C@H]3CC[C@H](C)CC3)cc2)C1=O [Glimepiride]
fold induction at 50 µM ([1]; planktonic, cutoff for positive-scoring molecules 3-fold increase, read-out: AK-based Prestwick Library Screening Results, K. pneumoniae (fold increase in extracellular AK activity)): 0.7 | fold induction at 50 µM ([2]; planktonic, cutoff for positive-scoring molecules 3-fold increase, read-out: AK-based Prestwick Library Screening Results, S. aureus (fold increase in extracellular AK activity)): 0.5 | fold induction at 50 µM ([3]; planktonic, cutoff for positive-scoring molecules 3-fold increase, read-out: AK-based Prestwick Library Screening Results, E. faecium (fold increase in extracellular AK activity)): 1.4 | fold induction at 50 µM ([4]; planktonic, cutoff for positive-scoring molecules 3-fold increase, read-out: AK-based Prestwick Library Screening Results, E. coli (fold increase in extracellular AK activity)): 0.5 | fold induction at 50 µM ([5]; planktonic, cutoff for positive-scoring molecules 3-fold increase, read-out: AK-based Prestwick Library Screening Results, A. baumannii (fold increase in extracellular AK activity)): 0.7 | fold induction at 50 µM ([6]; planktonic, cutoff for positive-scoring molecules 3-fold increase, read-out: AK-based Prestwick Library Screening Results, E. cloacae (fold increase in extracellular AK activity)): 0.9 | fold induction at 50 µM ([7]; planktonic, cutoff for positive-scoring molecules 3-fold increase, read-out: AK-based Prestwick Library Screening Results, P. aeruginosa (fold increase in extracellular AK activity)): 0.7

Cc1cnc(C(=O)NCCc2ccc(S(=O)(=O)NC(=O)NC3CCCCC3)cc2)cn1 [Glipizide]
fold induction at 50 µM [1, 8]: 0.8 | fold induction at 50 µM [2, 9]: 1.2 | fold induction at 50 µM [3, 10]: 0.9 | fold induction at 50 µM [4, 11]: 1.2 | fold induction at 50 µM [5, 12]: 1 | fold induction at 50 µM [6, 13]: 1.3 | fold induction at 50 µM [7, 14]: 1

COc1ccc2c(c1)C(=O)N(CCc1ccc(S(=O)(=O)NC(=O)NC3CCCCC3)cc1)C(=O)C2(C)C [Gliquidone]
fold induction at 50 µM ([1]; planktonic K. pneumoniae, positive cutoff 3-fold increase, read-out: AK-based Prestwick library screening result, K. pneumoniae (fold increase in extracellular AK activity)): 0.7 | fold induction at 50 µM ([2]; planktonic S. aureus, positive cutoff 3-fold increase, read-out: AK-based Prestwick library screening result, S. aureus (fold increase in extracellular AK activity)): 0.5 | fold induction at 50 µM ([3]; planktonic E. faecium, positive cutoff 3-fold increase, read-out: AK-based Prestwick library screening result, E. faecium (fold increase in extracellular AK activity)): 0.9 | fold induction at 50 µM ([4]; planktonic E. coli, positive cutoff 3-fold increase, read-out: AK-based Prestwick library screening result, E. coli (fold increase in extracellular AK activity)): 0.8 | fold induction at 50 µM ([5]; planktonic A. baumannii, positive cutoff 3-fold increase, read-out: AK-based Prestwick library screening result, A. baumannii (fold increase in extracellular AK activity)): 0.7 | fold induction at 50 µM ([6]; planktonic E. cloacae, positive cutoff 3-fold increase, read-out: AK-based Prestwick library screening result, E. cloacae (fold increase in extracellular AK activity)): 1.1 | fold induction at 50 µM ([7]; planktonic P. aeruginosa, positive cutoff 3-fold increase, read-out: AK-based Prestwick library screening result, P. aeruginosa (fold increase in extracellular AK activity)): 0.8
